In patent US7932262B2 (Novartis AG, priority 2006, dated 2011):
Like-named read-outs stand apart in the source and are kept apart here.

Experiments:
PC-3 cells = assay: Cell Proliferation Assay (Cell Titer Glo), PC-3 cell line; assay type: cell-based; conditions: read-out: CPEC50 PC3
How it was run: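 PC-3 cells, 1000 cells/well, left to adhere 3-5 h, then exposed for 3 days at 37° C to compounds as 1:3 serial dilutions from 500× DMSO stocks diluted in growth medium. Medium then replaced with fresh medium and viability read by Cell Titer Glo luminescence.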

PDK1 kinase = biological target: T1, PDK1 kinase (Homo sapiens, UniProt O15530); assay: PDK1 Kinase Alpha Screen Assay; assay type: biochemical; conditions: read-out: PDK1 IC50
T1 sequence (O15530 1-556): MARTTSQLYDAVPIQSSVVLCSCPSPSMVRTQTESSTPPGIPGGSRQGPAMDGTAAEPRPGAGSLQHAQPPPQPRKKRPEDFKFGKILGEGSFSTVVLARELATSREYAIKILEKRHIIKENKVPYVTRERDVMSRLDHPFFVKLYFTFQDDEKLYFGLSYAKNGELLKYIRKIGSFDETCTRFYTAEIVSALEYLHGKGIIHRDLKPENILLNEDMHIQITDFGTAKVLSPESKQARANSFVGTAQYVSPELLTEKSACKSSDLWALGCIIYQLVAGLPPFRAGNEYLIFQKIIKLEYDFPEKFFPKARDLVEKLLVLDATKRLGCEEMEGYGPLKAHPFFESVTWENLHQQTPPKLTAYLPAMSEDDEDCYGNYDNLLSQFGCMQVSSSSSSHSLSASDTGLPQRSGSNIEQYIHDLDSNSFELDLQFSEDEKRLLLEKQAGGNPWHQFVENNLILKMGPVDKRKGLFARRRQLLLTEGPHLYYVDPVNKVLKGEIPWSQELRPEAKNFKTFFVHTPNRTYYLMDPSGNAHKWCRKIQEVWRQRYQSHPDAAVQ
How it was run: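 Biotinylated PDK1-4 peptide (50 nM) phosphorylated by PDK1 with 10 uM ATP in pH 7.5 Tris/MgCl2/DTT buffer, 2.5% DMSO, for 3-18 hours. EDTA stop, then AlphaScreen detection with phospho-(Ser/Thr) PKA substrate antibody and protein A/streptavidin beads after overnight room-temperature development.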

NS(=O)(=O)c1ccc(Nc2ncc3cccc(-c4cncc(C(=O)N5CCNC(=O)C5)c4)c3n2)cc1 [Compound 983, 4-(8-(5-(3-oxopiperazine-1-carbonyl)pyridin-3-yl)quinazolin-2-ylamino)benzenesulfonamide]
EC50 (PC-3 cells; Homo sapiens, PC-3, PC3 cells): 5 to 10 µM
IC50 (PDK1 kinase): < 5 µM

NS(=O)(=O)c1ccc(Nc2ncc3cccc(-c4cncc(C(=O)N5CCOCC5)c4)c3n2)cc1 [Compound 984, 4-(8-(5-(morpholine-4-carbonyl)pyridin-3-yl)quinazolin-2-ylamino)benzenesulfonamide]
EC50 (PC-3 cells; Homo sapiens, PC-3, PC3 cells): 5 to 10 µM
IC50 (PDK1 kinase): < 5 µM

CN1CCN(c2ccc(-c3cccc4cnc(Nc5ccc(S(N)(=O)=O)cc5)nc34)cc2)CC1 [Compound 985, 4-(8-(4-(4-methylpiperazin-1-yl)phenyl)quinazolin-2-ylamino)benzenesulfonamide]
EC50 (PC-3 cells; Homo sapiens, PC-3, PC3 cells): < 5 µM
IC50 (PDK1 kinase): < 5 µM

NS(=O)(=O)c1ccc(Nc2ncc3cccc(-c4ccc(CN5CCOCC5)cc4)c3n2)cc1 [Compound 986, 4-(8-(4-(mopholinomethyl)phenyl)quinazolin-2-ylamino)benzenesulfonamide]
EC50 (PC-3 cells; Homo sapiens, PC-3, PC3 cells): < 5 µM
IC50 (PDK1 kinase): < 5 µM

NS(=O)(=O)c1ccc(Nc2ncc3cccc(C4=CCNCC4)c3n2)cc1 [Compound 987, 4-(8-(1.2,3,6-tetrahydropyridin-4-yl)quinazolin-2-ylamino)benzenesulfonamide]
EC50 (PC-3 cells; Homo sapiens, PC-3, PC3 cells): < 5 µM
IC50 (PDK1 kinase): < 5 µM

CC(C)NC(=O)c1ccc(Nc2ncc3cccc(-c4ccc(NCCN5CCCC5)nc4)c3n2)cc1 [Compound 993, N-isopropyl-4-(8-(6-(2-(pyrrolidin-1-yl)ethylamino)pyridin-3-yl)quinazolin-2-ylamino)benzamide]
EC50 (PC-3 cells; Homo sapiens, PC-3, PC3 cells): < 5 µM
IC50 (PDK1 kinase): < 5 µM

Fc1ccc(Nc2ncc3cccc(-c4ccc(NCCN5CCCC5)nc4)c3n2)cc1 [Compound 994, N-(4-fluorophenyl)-8-(6-(2-(pyrrolidin-1-yl)ethylamino)pyridin-3-yl)quinazolin-2-amine]
EC50 (PC-3 cells; Homo sapiens, PC-3, PC3 cells): < 5 µM
IC50 (PDK1 kinase): < 5 µM

Clc1ccc(Nc2ncc3cccc(-c4ccc(NCCN5CCCC5)nc4)c3n2)cc1 [Compound 995, N-(4-chorophenyl)-8-(6-(2-(pyrrolidin-1-yl)ethylamino)pyridin-3-yl)quinazolin-2-amine]
EC50 (PC-3 cells; PC3 cells): < 5 µM
IC50 (PDK1 kinase): < 5 µM

c1cc(-c2ccc(NCCN3CCCC3)nc2)c2nc(Nc3ccc(N4CCOCC4)cc3)ncc2c1 [Compound 996, N-(4-morpholinophenyl)-8-(6-(2-(pyrrolidin-1-yl)ethylamino)pyridin-3-yl)quinazolin-2-amine]
EC50 (PC-3 cells; Homo sapiens, PC-3, PC3 cells): < 5 µM
IC50 (PDK1 kinase): < 5 µM

CNS(=O)(=O)Cc1ccc(Nc2ncc3cccc(-c4ccc(NCCN5CCCC5)nc4)c3n2)cc1 [Compound 998, N-methyl-1-(4-(8-(6-(2-(pyrrolidin-1-yl)ethylamino)pyridin-3-yl)quinazolin-2-ylamino)phenyl)methanesulfonamide]
EC50 (PC-3 cells; Homo sapiens, PC-3, PC3 cells): < 5 µM
IC50 (PDK1 kinase): < 5 µM

CN1CCN(c2ccc(-c3cccc4cnc(Nc5ccc(F)cc5)nc34)cn2)CC1 [Compound 999, N-(4-fluorophenyl)-8-(6-(4-methylpiperazin-1-yl)pyridin-3-yl)quinazolin-2-amine]
EC50 (PC-3 cells; Homo sapiens, PC-3, PC3 cells): < 5 µM
IC50 (PDK1 kinase): < 5 µM

O=c1[nH]c2ccc(Nc3ncc4cccc(-c5ccc(NCCN6CCCC6)nc5)c4n3)cc2[nH]1 [Compound 1000, 5-(8-(6-(2-(pyrrolidin-1-yl)ethylamino)pyridin-3-yl)quinazolin-2-ylamino)-1H-benzo[d]imidazol-2(3H)-one]
EC50 (PC-3 cells; Homo sapiens, PC-3, PC3 cells): < 5 µM
IC50 (PDK1 kinase): < 5 µM

Cc1ccc(Nc2ncc3cccc(-c4ccc(NCCN5CCCC5)nc4)c3n2)cc1NS(C)(=O)=O [Compound 1001, N-(2-methyl-5-(8-(6-(2-(pyrrolidin-1-yl)ethylamino)pyridin-3-yl)quinazolin-2-ylamino)phenyl)methanesulfonamide]
EC50 (PC-3 cells; Homo sapiens, PC-3, PC3 cells): < 5 µM
IC50 (PDK1 kinase): < 5 µM

CC(C)NS(=O)(=O)c1ccc(Nc2ncc3cccc(-c4ccc(NCCN5CCCC5)nc4)c3n2)cc1 [Compound 1016, N-isopropyl-4-(8-(6-(2-(pyrrolidin-1-yl)ethylamino)pyridin-3-yl)quinazolin-2-ylamino)benzenesulfonamide]
EC50 (PC-3 cells; Homo sapiens, PC-3, PC3 cells): < 5 µM
IC50 (PDK1 kinase): < 5 µM

Fc1ccc(Nc2ncc3cccc(-c4ccc(NCCN5CCCC5)nc4)c3n2)c(F)c1 [Compound 1017, N-(2,4-difluorophenyl)-8-(6-(2-(pyrrolidin-1-yl)ethylamino)pyridin-3-yl)quinazolin-2-amine]
EC50 (PC-3 cells; Homo sapiens, PC-3, PC3 cells): < 5 µM
IC50 (PDK1 kinase): < 5 µM

Fc1ccc(Nc2ncc3cccc(-c4ccc(NCCN5CCCC5)nc4)c3n2)cc1F [Compound 1018, N-(3,4-difluorophenyl)-8-(6-(2-(pyrrolidin-1-yl)ethylamino)pyridin-3-yl)quinazolin-2-amine]
EC50 (PC-3 cells; Homo sapiens, PC-3, PC3 cells): < 5 µM
IC50 (PDK1 kinase): < 5 µM

OCCc1ccc(Nc2ncc3cccc(-c4ccc(NCCN5CCCC5)nc4)c3n2)cc1 [Compound 1019, 2-(4-(8-(6-(2-(pyrrolidin-1-yl)elhylamino)pyridin-3-yl)quinazolin-2-ylamino)phenyl)ethanol]
EC50 (PC-3 cells; Homo sapiens, PC-3, PC3 cells): < 5 µM
IC50 (PDK1 kinase): < 5 µM

Fc1cccc(Nc2ncc3cccc(-c4ccc(NCCN5CCCC5)nc4)c3n2)c1 [Compound 1020, N-(3-fluorophenyl)-8-(6-(2-(pyrrolidin-1-yl)ethylamino)pyridin-3-yl)quinazolin-2-amine]
EC50 (PC-3 cells; Homo sapiens, PC-3, PC3 cells): < 5 µM
IC50 (PDK1 kinase): < 5 µM

Cn1cnnc1-c1cccc(Nc2ncc3cccc(-c4ccc(NCCN5CCCC5)nc4)c3n2)c1 [Compound 1021, N-(3-(4-methyl-4H-1,2,4-triazol-3-yl)phenyl)-8-(6-(2-(pyrrolidin-1-yl)ethylamino)pyridin-3-yl)quinazolin-2-amine]
EC50 (PC-3 cells; Homo sapiens, PC-3, PC3 cells): < 5 µM
IC50 (PDK1 kinase): < 5 µM

c1cc(Nc2ncc3cccc(-c4ccc(NCCN5CCCC5)nc4)c3n2)cc(N2CCOCC2)c1 [Compound 1022, N-(3-morpholinophenyl)-8-(6-(2-(pyrrolidin-1-yl)ethylamino)pyridin-3-yl)quinazolin-2-amine]
EC50 (PC-3 cells; Homo sapiens, PC-3, PC3 cells): < 5 µM
IC50 (PDK1 kinase): < 5 µM

FC(F)(F)c1cccc(Nc2ncc3cccc(-c4ccc(NCCN5CCCC5)nc4)c3n2)c1 [Compound 1023, 8-(6-(2-(pyrrolidin-1-yl)ethylamino)pyridin-3-yl)-N-(3-(trifluoromethyl)phenyl)quinazolin-2-amine]
EC50 (PC-3 cells; Homo sapiens, PC-3, PC3 cells): < 5 µM
IC50 (PDK1 kinase): < 5 µM

CC(=O)Nc1ccc(Nc2ncc3cccc(-c4ccc(NCCN5CCCC5)nc4)c3n2)cc1Cl [Compound 1024, N-(2-chloro-4-(8-(6-(2-(pyrrolidin-1-yl)ethylamino)pyridin-3-yl)quinazolin-2-ylamino)phenyl)acetamide]
EC50 (PC-3 cells; Homo sapiens, PC-3, PC3 cells): < 5 µM
IC50 (PDK1 kinase): < 5 µM

CC(C)Cn1cc(-c2ccc3cnc(Nc4ccc(N5CCN(C)CC5)cc4)nc3c2)cn1 [Compound 1025, 7-(1-isobutyl-1H-pyrazol-4-yl)-N-(4-(4-methylpiperazin-1-yl)phenyl)quinazolin-2-amine]
EC50 (PC-3 cells; Homo sapiens, PC-3, PC3 cells): < 5 µM
IC50 (PDK1 kinase): < 5 µM

Cc1ccc(Nc2ncc3ccc(O)c(C4CCN(C(C)C)CC4)c3n2)cc1NS(C)(=O)=O [Compound 1026, N-(5-(7-hydroxy-8-(1-isopropylpiperidin-4-yl)quinazolin-2-ylamino)-2-methylphenyl)methanesulfonamide]
EC50 (PC-3 cells; Homo sapiens, PC-3, PC3 cells): < 5 µM
IC50 (PDK1 kinase): < 5 µM
